Data: ChEMBL document CHEMBL1136279, “Synthesis and insulin-sensitizing activity of a novel kind of benzopyran derivative” (2003)

How the values were obtained:
3T3-L1 [1] = test: Percentage of rosiglitazone response for insulin-sensitizing activity at 1 uM concentration in 3T3-L1 cells; type: functional, Mus musculus
3T3-L1 [2] = test: Effective concentration for enhancement of insulin-induced triglyceride accumulation in 3T3-L1 cells; type: functional; details: Mus musculus

## COC(=O)c1cc2cc(OCCc3nc(-c4ccccc4)oc3C)ccc2oc1=O
3T3-L1 [1]
  Insulin-sensitizing activity: 33%

## Cc1oc(-c2ccccc2)nc1CCOc1ccc2cc(C(=O)OC(C)(C)C)c(=O)oc2c1
3T3-L1 [2]
  EC30: 382 nM
3T3-L1 [1]
  Insulin-sensitizing activity: 89%

## COC(=O)C1Cc2cc(OCCc3nc(-c4ccccc4)oc3C)ccc2OC1=O (stereo not drawn)
3T3-L1 [1]
  Insulin-sensitizing activity: 28%

## CCc1ccc(CCOc2ccc3c(c2)OC(=O)C(C(=O)OC)C3)nc1 (stereo not drawn)
3T3-L1 [1]
  Insulin-sensitizing activity: 27%

## Cc1oc(-c2ccccc2)nc1CCOc1ccc2cc(C(=O)O)c(=O)oc2c1
3T3-L1 [2]
  EC30: 300 nM
3T3-L1 [1]
  Insulin-sensitizing activity: 103%

## COC(=O)C1Cc2ccc(OCCc3nc(-c4ccccc4)oc3C)cc2OC1=O (stereo not drawn)
3T3-L1 [2]
  EC30: 15.6 nM
3T3-L1 [1]
  Insulin-sensitizing activity: 132%

## CN(CCOc1ccc(CC2SC(=O)NC2=O)cc1)c1ccccn1 (stereo not drawn) [ROSIGLITAZONE]
3T3-L1 [2]
  EC30: 20.3 nM
3T3-L1 [1]
  Insulin-sensitizing activity: 100%

## COC(=O)c1cc2ccc(OCCn3ccc4ccccc43)cc2oc1=O
3T3-L1 [2]
  EC30: 344 nM
3T3-L1 [1]
  Insulin-sensitizing activity: 108%

## CCc1ccc(CCOc2ccc3cc(C(=O)OC)c(=O)oc3c2)nc1
3T3-L1 [1]
  Insulin-sensitizing activity: 46%

## CCc1ccc(CCOc2ccc3cc(C(=O)O)c(=O)oc3c2)nc1
3T3-L1 [1]
  Insulin-sensitizing activity: 15%

## O=C(O)c1cc2ccc(OCCn3ccc4ccccc43)cc2oc1=O
3T3-L1 [1]
  Insulin-sensitizing activity: 25%

## COC(=O)C1Cc2ccc(OCCN(C)c3nc4ccccc4o3)cc2OC1=O (stereo not drawn)
3T3-L1 [2]
  EC30: 219 nM
3T3-L1 [1]
  Insulin-sensitizing activity: 108%

## COC(=O)c1cc2ccc(OCCN(C)C(=O)OC(C)(C)C)cc2oc1=O
3T3-L1 [1]
  Insulin-sensitizing activity: 115%

## COC(=O)c1cc2ccc(OCCc3nc(-c4ccccc4)oc3C)cc2oc1=O
3T3-L1 [2]
  EC30: 8 nM
3T3-L1 [1]
  Insulin-sensitizing activity: 129%

## Cc1oc(-c2ccccc2)nc1CCOc1ccc2c(c1)OC(=O)C(C(=O)O)C2 (stereo not drawn)
3T3-L1 [2]
  EC30: 110 nM
3T3-L1 [1]
  Insulin-sensitizing activity: 98%
